Test results published in PMC11643962, “Exploring 4,7-Disubstituted Pyrimido[4,5-d]pyrimidines as Antiviral and Anticancer Agents” (Molecules, 2024).
Read-outs that look alike come from different tables or passages of the source.

What was measured:
HCoV-229E = experiment: Antiviral CPE reduction assay, HCoV-229E in HEL299 cells; assay type: cell-based, human coronavirus 229E; conditions: Human coronavirus 229E, HEL 299, MTS, mean ± SD of two or three independent experiments
HCoV-OC43 = experiment: Antiviral CPE reduction assay, HCoV-OC43 in HEL299 cells; assay type: cell-based, human coronavirus OC43; conditions: Betacoronavirus 1, OC43, HEL 299, MTS, mean ± SD of two or three independent experiments
HCoV-NL63 = experiment: Antiviral CPE reduction assay, HCoV-NL63 in Hep3B cells; assay type: cell-based, human coronavirus NL63; conditions: Human coronavirus NL63, MTS, mean ± SD of two or three independent experiments
[1] = test system: influenza A/H1N1 (A/Ned/378/05); experiment: Antiviral CPE reduction assay, influenza A/H1N1 in MDCK cells; assay type: cell-based, influenza A virus; conditions: Influenza A virus, read-out: Antiviral Activity (EC50) Influenza H1N1
[2] = test system: influenza A/H3N2 (A/HK/7/87); experiment: Antiviral CPE reduction assay, influenza A/H3N2 in MDCK cells; assay type: cell-based, influenza A virus; conditions: Influenza A virus, read-out: Antiviral Activity (EC50) Influenza H3N2
[3] = test system: influenza B (B/Ned/537/05); experiment: Antiviral CPE reduction assay, influenza B in MDCK cells; assay type: cell-based, influenza B virus; conditions: Influenza B virus, MDCK, read-out: Antiviral Activity (EC50) Influenza B
[4] = test system: respiratory syncytial virus A (RSV A Long); experiment: Antiviral CPE reduction assay, RSV A Long in Hep2 cells; assay type: cell-based; conditions: human respiratory syncytial virus
[5] = test system: herpes simplex virus-1 (HSV-1 KOS); experiment: Antiviral CPE reduction assay, HSV-1 KOS in HEL299 cells; assay type: cell-based; conditions: Human alphaherpesvirus 1, HEL 299, MTS, mean ± SD, no unit printed on the supplement page (Table 2 of the same screen is in µM)
[6] = test system: yellow fever virus (YFV 17D); experiment: microbe, parasite or virus in culture; assay type: cell-based; conditions: Yellow fever virus, Vero C1008, read-out: Antiviral activity (EC50) YFV 17D
Zika virus (ZikV mr766) = experiment: Antiviral CPE reduction assay, Zika virus mr766 in VeroE6 cells; assay type: cell-based; conditions: Zika virus, Vero C1008, MTS, mean ± SD, no unit printed on the supplement page (Table 2 of the same screen is in µM)
in vitro [7] = conditions: human
in vitro [8] = conditions: human; remark: listed apart in the source
in vitro [9] = conditions: dog
in vitro [10] = conditions: human; remark: listed apart in the source
in vitro [11] = conditions: African green monkey
[12] = test system: HL-60 (acute myeloid leukemia); experiment: MTS proliferation assay, HL-60; conditions: Homo sapiens, HL-60, 72 h, read-out: Anti-Proliferative Activity (IC50) HL-60
[13] = test system: K-562 (chronic myeloid leukemia); experiment: MTS proliferation assay, K-562; conditions: Homo sapiens, K562, 72 h, read-out: Anti-Proliferative Activity (IC50) K-562
[14] = test system: Z-138 (non-Hodgkin lymphoma); experiment: MTS proliferation assay, Z-138; conditions: Homo sapiens, Z-138, 72 h, read-out: Anti-Proliferative Activity (IC50) Z-138
LN-229 (glioblastoma) = experiment: MTS proliferation assay, LN-229; conditions: Homo sapiens, LN-229, 72 h, read-out: Anti-Proliferative Activity (IC50) LN-229
[15] = test system: DND-41 (acute lymphoblastic leukemia); experiment: MTS proliferation assay, DND-41; conditions: Homo sapiens, DND41, 72 h, read-out: Anti-Proliferative Activity (IC50) DND-41
[16] = test system: Capan-1 (pancreatic adenocarcinoma); experiment: MTS proliferation assay, Capan-1; conditions: Homo sapiens, CAPAN-1, 72 h, read-out: Anti-Proliferative Activity (IC50) Capan-1
[17] = test system: HCT-116 (colorectal carcinoma); experiment: MTS proliferation assay, HCT-116; conditions: Homo sapiens, HCT-116, 72 h, read-out: Anti-Proliferative Activity (IC50) HCT-116
[18] = test system: NCI-H460 (lung carcinoma); experiment: MTS proliferation assay, NCI-H460; conditions: Homo sapiens, NCI-H460, 72 h, read-out: Anti-Proliferative Activity (IC50) NCI-H460
[19] = H1N1, MDCK cells, CPE reduction, MTS, mean ± SD of two or three independent experiments
[20] = H3N2, MDCK cells, CPE reduction, MTS, mean ± SD of two or three independent experiments
[21] = HEp-2, Hep2 cells, CPE reduction, MTS, mean ± SD of two or three independent experiments, read-out: Antiviral Activity (EC50) RSV A Long
[22] = HEp-2, read-out: Antiviral Activity (EC50) RSV A Long

SMILES	EC50 (HCoV-229E)	EC50 (HCoV-OC43)	EC50 (HCoV-NL63)	EC50 [1, 19]	EC50 [2, 20]	EC50 [3]	EC50 [4, 21]	EC50 [5]	EC50 [6]	EC50 (Zika virus (ZikV mr766))	CC50 (in vitro [9])	CC50 (in vitro [11])	IC50 [12]	IC50 [13]	IC50 [14]	IC50 (LN-229 (glioblastoma))	IC50 [15]	IC50 [16]	IC50 [17]	IC50 [18]	other results
CN(C)CCNc1ncc2c(Nc3cccc4c3CCCC4)ncnc2n1 [Compound 7a, N^2-[2-(Dimethylamino)ethyl]-N^5-(5,6,7,8-tetrahydronaphthalen-1-yl)pyrimido[4,5-d]pyrimidine-2,5-diamine]	15.8 ± 0.9 µM	27.7 ± 0.6 µM	> 50 µM	> 50 µM	> 50 µM	> 50 µM	> 50 µM	> 50 µM	> 50 µM	> 50 µM	> 50 µM	> 50 µM	> 100 µM	87 ± 1.3 µM	58.9 ± 1.8 µM	> 100 µM	57.9 ± 2 µM	> 100 µM	> 100 µM	> 100 µM	melting point: 176.3 °C; CC50 (in vitro [7]): > 50 µM; CC50 (in vitro [8]): > 50 µM; CC50 (in vitro [10]): > 50 µM
CC(=O)N[C@H]1[C@H]([C@H](O)[C@H](O)CO)OC(C(=O)O)=C[C@@H]1N=C(N)N [Zanamivir, zanamivir, reference compound]				0.6 ± 0.3 µM	3 ± 0.2 µM	0.4 ± 0.01 µM					> 100 µM										
C#Cc1cccc(Nc2ncnc3cc(OCCOC)c(OCCO)cc23)c1 [OSI-420, reference compound]	> 100 µM	> 100 µM	> 100 µM			> 100 µM		> 100 µM	> 100 µM	> 100 µM	> 100 µM	> 100 µM	> 100 µM	> 100 µM	> 100 µM	> 100 µM	> 100 µM	41.7 ± 3.6 µM	> 100 µM	> 100 µM	EC50 ([1]; H1N1, MDCK): > 100 µM; EC50 ([2]; H3N2, MDCK): > 100 µM; EC50 [4, 22]: > 100 µM
CCN(CC)CCNc1ncc2c(Nc3cccc4c3CCC4)ncnc2n1 [Compound 7f, N^5-(2,3-dihydro-1H-inden-4-yl)-N^2-[2-(diethylamino)ethyl]pyrimido[4,5-d]pyrimidine-2,5-diamine]	3.9 ± 2.9 µM	37.3 ± 15.1 µM	> 50 µM	> 50 µM	> 50 µM	> 50 µM	> 50 µM	> 50 µM	> 50 µM	> 50 µM	> 50 µM	> 50 µM	> 100 µM	> 100 µM	> 100 µM	> 100 µM	> 100 µM	> 100 µM	> 100 µM	> 100 µM	melting point: 172.9 °C; CC50 (in vitro [7]): > 50 µM; CC50 (in vitro [8]): > 50 µM; CC50 (in vitro [10]): > 50 µM
c1cncc(Nc2ncnc3nc(NC4CC4)ncc23)c1 [Compound 7m, N^2-cyclopropyl-N^5-(pyridin-3-yl)pyrimido[4,5-d]pyrimidine-2,5-diamine]	> 50 µM	> 50 µM	> 50 µM	> 50 µM	> 50 µM	> 50 µM	> 50 µM	> 50 µM	> 50 µM	> 50 µM	> 50 µM	> 50 µM	> 100 µM	> 100 µM	> 100 µM	> 100 µM	> 100 µM	> 100 µM	> 100 µM	> 100 µM	melting point: 243 °C; CC50 (in vitro [7]): > 50 µM; CC50 (in vitro [8]): > 50 µM; CC50 (in vitro [10]): > 50 µM
C#Cc1cccc(Nc2ncnc3cc(OCCOC)c(OCCOC)cc23)c1 [Erlotinib, erlotinib, reference compound]	22.5 ± 10 µM	> 100 µM	> 100 µM	> 100 µM	> 100 µM	> 100 µM	> 100 µM	> 100 µM	> 100 µM	> 100 µM	> 100 µM	> 100 µM	10.7 ± 0.1 µM	> 100 µM	> 100 µM	> 100 µM	> 100 µM	18.6 ± 1.1 µM	> 100 µM	> 100 µM	CC50 (in vitro [7]): > 100 µM; CC50 (in vitro [8]): > 100 µM; CC50 (in vitro [10]): > 100 µM
COc1cc([C@@H]2c3cc4c(cc3[C@@H](O[C@@H]3O[C@@H]5CO[C@@H](C)O[C@H]5[C@H](O)[C@H]3O)[C@H]3COC(=O)[C@H]23)OCO4)cc(OC)c1O [Etoposide, etoposide, reference compound]													0.2 ± 0.01 µM	6 ± 2 µM	0.08 ± 0.03 µM	3 ± 0.2 µM	0.1 ± 0.02 µM	0.1 ± 0.03 µM	1.4 ± 0.09 µM	2.2 ± 0.8 µM	
C#Cc1cccc(Nc2ncnc3nc(NCCN(CC)CC)ncc23)c1 [Compound 7i, N^2-[2-(diethylamino)ethyl]-N^5-(3-ethynylphenyl)pyrimido[4,5-d]pyrimidine-2,5-diamine]	19.3 ± 6.6 µM	≥ 39.8 µM	> 50 µM	> 50 µM	> 50 µM	> 50 µM	> 50 µM	> 50 µM	> 50 µM	> 50 µM	> 50 µM	> 50 µM	> 100 µM	51.8 ± 3.5 µM	62.1 ± 0.8 µM	> 100 µM	62.6 ± 0.1 µM	> 100 µM	> 100 µM	> 100 µM	
CC(N)C12CC3CC(CC(C3)C1)C2 (centres unmarked) [Rimantadine, rimantadine, reference compound]				1.7 ± 0.5 µM	0.6 ± 0.07 µM	> 100 µM					> 100 µM										
CCC(CC)COC(=O)[C@H](C)N[P@](=O)(OC[C@H]1O[C@@](C#N)(c2ccc3c(N)ncnn23)[C@H](O)[C@@H]1O)Oc1ccccc1 [Remdesivir, remdesivir, reference compound]	0.05 ± 0.04 µM	0.14 ± 0.007 µM	0.14 ± 0.04 µM				0.008 ± 0.001 µM														CC50 (in vitro [7]): > 10 µM
NC(=O)c1ncn([C@@H]2O[C@H](CO)[C@@H](O)[C@H]2O)n1 [Ribavirin, ribavirin, reference compound]	38.9 ± 1.7 µM	100 ± 19 µM	39.9 ± 7.1 µM			7.4 ± 0.8 µM			24.5 µM	104 µM	> 250 µM	> 250 µM									EC50 ([1]; H1N1, MDCK): 9.6 ± 1 µM; EC50 ([2]; H3N2, MDCK): 7.2 ± 1.6 µM; EC50 [4, 22]: 35.9 ± 1.3 µM
